From PubChem BioAssay (NCI) come the findings set out here.

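Following 48 hours of exposure in 96-well plates, responses at five concentrations were used to interpolate endpoints linearly. TGI marks complete inhibition of growth.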 Some results are limits rather than exact numbers.

Among the test systems are DU-145 prostate; IGROV1 ovarian; LOX IMVI melanoma; NCI/ADR-RES ovarian; OVCAR-8 ovarian; SF-268 CNS; SF-295 CNS; SK-MEL-5 melanoma; SK-OV-3 ovarian; UACC-257 melanoma; HS 578T breast.
Holding throughout (test): NCI tumour cell line growth inhibition, 48 h

For the molecule `N#CC(c1cc(Cl)ncn1)c1nc2ccccc2s1` (stereo not drawn), the TGI in the test on DU-145 prostate is 24.2 µM; in the test with IGROV1 ovarian it was 22 µM; in the test with LOX IMVI melanoma it was 15.8 µM; in the test with NCI/ADR-RES ovarian, 15.2 µM; with OVCAR-8 ovarian, 12.5 µM; in the test on SF-268 CNS, 18.3 µM. Besides, the TGI is 43.7 µM in the test on SF-295 CNS, 33.1 µM with SK-MEL-5 melanoma, 28.8 µM in the test on SK-OV-3 ovarian and 32.2 µM in the test on UACC-257 melanoma.

Take `CC[C@]12C=CCN3CCC4(c5cc([C@@]6(C(=O)OC)CC7CN(CCc8c6[nH]c6ccccc86)C[C@@H]6CCC[C@H]76)c(OC)cc5N(C)C4[C@](O)(C(=O)OC)C1OC(C)=O)C32` (stereo partly drawn): the TGI in the test with DU-145 prostate was 0.0749 µM; in the test on IGROV1 ovarian, 7.31 µM; with LOX IMVI melanoma it was over 10 µM; with NCI/ADR-RES ovarian it was 4.75 µM; in the test on OVCAR-8 ovarian, over 4.81 µM; with SF-268 CNS, 1.6 µM. For the same molecule, the TGI is over 3.23 µM in the test on SF-295 CNS, 0.181 µM in the test with SK-MEL-5 melanoma, over 2.54 µM with SK-OV-3 ovarian and over 10 µM in the test with UACC-257 melanoma.

For the molecule `CCNCCNC(=O)c1ccc(Br)cc1`, the TGI in the test with HS 578T breast, in the test on IGROV1 ovarian, in the test on LOX IMVI melanoma, in the test on NCI/ADR-RES ovarian, with OVCAR-8 ovarian and in the test with SF-268 CNS was over 100 µM each time. Besides, the TGI with SK-MEL-5 melanoma and with SK-OV-3 ovarian was over 100 µM throughout.

For the molecule `CCCCCCCC/C=C/CCCCCCCC1CC(O)C(=O)O1` (stereo not drawn), the TGI with DU-145 prostate, in the test with IGROV1 ovarian, in the test with LOX IMVI melanoma, with NCI/ADR-RES ovarian, in the test with OVCAR-8 ovarian and in the test with SF-268 CNS was over 100 µM in each case. The TGI in the test on SF-295 CNS, in the test with SK-MEL-5 melanoma, in the test on SK-OV-3 ovarian and in the test with UACC-257 melanoma was over 100 µM each time.

As to `CCOC(=O)/C=C/c1ccccn1`, the TGI with IGROV1 ovarian, in the test on LOX IMVI melanoma, in the test on OVCAR-8 ovarian, in the test with SF-268 CNS, with SF-295 CNS and in the test with SK-MEL-5 melanoma was over 100 µM in each case. Further, the TGI in the test with SK-OV-3 ovarian and with UACC-257 melanoma was over 100 µM in each case.

As for `Cc1cc(C#N)c(Nc2c(C)cccc2[N+](=O)[O-])s1`, the TGI was over 100 µM in the test on DU-145 prostate; 82.3 µM in the test on NCI/ADR-RES ovarian; over 100 µM in the test on OVCAR-8 ovarian; 84.9 µM in the test on SF-268 CNS; over 100 µM in the test with SF-295 CNS; over 100 µM in the test on SK-OV-3 ovarian. Besides, the TGI in the test on UACC-257 melanoma is over 100 µM.

As to `N#Cc1c2nc3ccccc3nc2n2ccc3ccccc3c12`, the TGI in the test with IGROV1 ovarian, with OVCAR-8 ovarian, with SF-268 CNS, in the test with SF-295 CNS, in the test on SK-MEL-5 melanoma and in the test on SK-OV-3 ovarian was over 100 µM in each case. The TGI in the test with UACC-257 melanoma is over 100 µM.

Regarding `C/C(=N/N)c1ccc2[nH]c3c(C)cc([N+](=O)[O-])c(C)c3c2c1`, the TGI came to 19.5 µM with LOX IMVI melanoma; 26.5 µM with OVCAR-8 ovarian; 60.4 µM in the test with SF-268 CNS; 35.5 µM with SF-295 CNS; 18.1 µM in the test on SK-MEL-5 melanoma; 48.6 µM in the test on UACC-257 melanoma.

`COc1cc(C=O)c(-c2cc3c(cc2C=O)OCO3)c(OC)c1OC`: the TGI in the test on IGROV1 ovarian is over 290 µM; in the test with LOX IMVI melanoma it was over 290 µM; in the test on OVCAR-8 ovarian, over 290 µM; in the test on SF-268 CNS, over 290 µM; in the test on SF-295 CNS, 219 µM; in the test with SK-MEL-5 melanoma, over 290 µM. For the same molecule, the TGI in the test on SK-OV-3 ovarian and in the test on UACC-257 melanoma was over 290 µM each time.

For the molecule `Cc1cc(-c2ccccc2)cc2[n+]1CC=C2`, the TGI in the test with LOX IMVI melanoma, with OVCAR-8 ovarian, in the test with SF-268 CNS, with SF-295 CNS and in the test on UACC-257 melanoma was over 100 µM each time.

With `NC(CCCCNC(=O)C(Cc1ccccc1)NC(=O)OCc1ccccc1)C(=O)NC(CCCCNC(=O)C(Cc1ccccc1)NC(=O)OCc1ccccc1)C(=O)NC(CCCCNC(=O)C(Cc1ccccc1)NC(=O)OCc1ccccc1)C(=O)NC(CCCCNC(=O)C(Cc1ccccc1)NC(=O)OCc1ccccc1)C(=O)NC(CCCCNC(=O)C(Cc1ccccc1)NC(=O)OCc1ccccc1)C(=O)NC(CCCCNC(=O)C(Cc1ccccc1)NC(=O)OCc1ccccc1)C(=O)O` (stereo not drawn), the TGI in the test on DU-145 prostate, in the test with IGROV1 ovarian, in the test on LOX IMVI melanoma, in the test with OVCAR-8 ovarian, in the test with SF-268 CNS and with SK-MEL-5 melanoma was over 100 µM each time. This molecule came in with a TGI in the test on UACC-257 melanoma of over 100 µM.

Take `CCn1cnc2c(NC(C)=O)ncnc21`: the TGI in the test on DU-145 prostate, with IGROV1 ovarian, in the test on LOX IMVI melanoma, in the test on NCI/ADR-RES ovarian, in the test on OVCAR-8 ovarian and with SF-295 CNS was over 100 µM each time. For the same molecule, the TGI in the test with SK-MEL-5 melanoma, in the test with SK-OV-3 ovarian and with UACC-257 melanoma was over 100 µM each time.

For `Cc1cc2[nH]c3c(C#N)c(-c4ccccc4)c(CN4CCOCC4)c(=O)n3c2cc1C`, the TGI with LOX IMVI melanoma, in the test with NCI/ADR-RES ovarian, with OVCAR-8 ovarian, with SF-268 CNS, in the test with SF-295 CNS and in the test on SK-OV-3 ovarian was over 100 µM each time. Further, the TGI with UACC-257 melanoma is over 100 µM.

With `O=C(c1ccccc1)c1c(CNCc2ccccc2)n(C(=O)c2ccccc2)c2ccccc12`, the TGI was over 100 µM in the test on IGROV1 ovarian; over 100 µM with OVCAR-8 ovarian; over 100 µM in the test on SF-268 CNS; 41.7 µM with SF-295 CNS; over 100 µM with SK-MEL-5 melanoma; over 100 µM in the test with UACC-257 melanoma.

Take `CCNc1ncnc2n[nH]nc12`: the TGI with DU-145 prostate, in the test on IGROV1 ovarian, with LOX IMVI melanoma, with NCI/ADR-RES ovarian, in the test with OVCAR-8 ovarian and in the test on SF-295 CNS was over 100 µM each time. Besides, the TGI with SK-MEL-5 melanoma, with SK-OV-3 ovarian and in the test on UACC-257 melanoma was over 100 µM throughout.

`CC1=NN(C(=O)Cc2ccccc2)C(=O)/C1=C\c1ccco1`: the TGI in the test on LOX IMVI melanoma, with OVCAR-8 ovarian, in the test with SF-268 CNS, in the test on SF-295 CNS, in the test on SK-MEL-5 melanoma and in the test on UACC-257 melanoma was over 100 µM each time.
